Test results as given in article PMC12332266 (Frontiers in Pharmacology, 2025).
Read-outs that look alike come from different tables or passages of the source. One block for each compound: values may come before it.

How the values were obtained:
[1] = tested on: hiPSC-CM (iCell Cardiomyocytes^2); test: RTCA CardioECR assessment (impedance and electrophysiology parameters)
Method in brief: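 iCell^2 cardiomyocytes on fibronectin-coated ePlates monitored continuously by impedance for cell index, beating rate and amplitude. Field potential duration and spike amplitude were recorded from day 4–6 after monolayer formation. Data were double-normalized to DMSO control and baseline, with variability given as SD.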

[2] = tested on: hiPSC-CM (iCell Cardiomyocytes^2); test: Intracellular miRNA expression by RT-qPCR in hiPSC-CM pellets after 72-hour treatment; details: for fold induction at 0.1 µM / fold induction at 0.3 µM / fold induction at 1 µM / fold induction at 3 µM: Homo sapiens
Method in brief: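 After 72-hour treatment and RTCA CardioECR assessment, total RNA from hiPSC-CM pellets was reverse transcribed, pre-amplified and quantified by TaqMan RT-qPCR against a 17-miRNA panel. Triplicates were pooled, so no statistical analysis was performed.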

[3] = ref extensive literature search, cited from earlier work
[4] = hiPSC-CM, 72-hour treatment, lowest concentration causing at least 20% change from baseline
[5] = 72 h, read-out: hsa-miR-7-5p fold change
[6] = 72 h, read-out: hsa-miR-29a-5p fold change
[7] = 72 h, read-out: hsa-miR-96-5p fold change
[8] = 72 h, read-out: hsa-miR-126-3p fold change
[9] = 72 h, read-out: hsa-miR-133b fold change
[10] = 72 h, read-out: hsa-miR-146b-5p fold change
[11] = 72 h, read-out: hsa-miR-182-5p fold change
[12] = 72 h, read-out: hsa-miR-185-3p fold change
[13] = 72 h, read-out: hsa-miR-187-3p fold change
[14] = 72 h, read-out: hsa-miR-208b-3p fold change
[15] = 72 h, read-out: hsa-miR-365a-5p fold change

Beating Rate MEC ([1]; human, 72 h): 0.77 µM
Beating rate (BR) MEC ([1]; human, 72 h): 0.77 µM
RTCA, MEC (BR) ([1]; human, 72 h): 0.77 µM (BR)
Spike Amplitude (SA) MEC ([1]; human, 72 h): 0.23 µM
miRNAs hiPSC-CM pellet, MEC overall [2]: 0.23 µM
Compound: C#Cc1cccc(Nc2ncnc3cc(OCCOC)c(OCCOC)cc23)c1 [Erlotinib]
miRNAs upregulated at the MEC overall (hiPSC-CM pellet) [2]: miR-1-3p, miR-21-5p, miR-34a-5p, miR-208b-3p
intracellular miRNA upregulation in hiPSC-CM, in words ([2]; human, 72 h): upregulation of three miRNAs (hsa-miR-146b-5p, hsa-miR-182-5p, hsa-miR-365a-5p)
Cmax total ([3]; Supplementary Table 1): 3150 to 4800 nM
Cmax total ([3]; Table 1): 3150 to 4800 nM

Beating Rate MEC ([1]; hiPSC-CM, 72-hour treatment, at least 20% change, Supplementary Table 1): 1 µM
Beating rate (BR) MEC [1, 4]: 1 µM
RTCA, MEC (BR) ([1]; hiPSC-CM, change ≥20%, Table 2): 1 µM (BR)
Spike Amplitude (SA) MEC ([1]; human, 72 h): 0.01 µM
miRNAs hiPSC-CM pellet, MEC overall ([2]; lowest concentration tested which produced miRNA upregulation (fold change ≥2), 72 h): 0.01 µM
Compound: CCN(CC)CCNC(=O)c1c(C)[nH]c(/C=C2\C(=O)Nc3ccc(F)cc32)c1C [Sunitinib]
Cmax total ([3]; Supplementary Table 1): 181 to 250 nM
Cmax total ([3]; Table 1): 180 to 250 nM

Cell index (CI) MEC [1, 4]: 0.1 µM
RTCA, MEC (CI) ([1]; hiPSC-CM, change ≥20%, Table 2): 0.1 µM
Beating Rate MEC ([1]; human, 72 h): 1 µM
Beating rate (BR) MEC ([1]; human, 72 h): 1 µM
Cell Index MEC ([1]; human, 72 h): 0.1 µM
Contractility Amplitude MEC ([1]; human, 72 h): 0.1 µM
Field Potential Duration MEC ([1]; human, 72 h): 1 µM
RTCA, MEC (BR) ([1]; human, 72 h): 1 µM
Spike Amplitude (SA) MEC ([1]; human, 72 h): 0.1 µM
intracellular miRNA upregulation in hiPSC-CM, in words [2]: smallest fold change
miRNAs hiPSC-CM pellet, MEC overall [2]: 0.1 µM
miRNAs upregulated at the MEC overall (hiPSC-CM pellet) [2]: miR-34a-5p, miR-146b-5p
Compound: CCC1=C[C@@H]2CN(C1)Cc1c([nH]c3ccccc13)[C@@](C(=O)OC)(c1cc3c(cc1OC)N(C)[C@H]1[C@@](O)(C(=O)OC)[C@H](OC(C)=O)[C@]4(CC)C=CCN5CC[C@]31[C@@H]54)C2 [Vinorelbine]
fold induction at 0.1 µM [2, 5]: 1
fold induction at 0.3 µM [2, 5]: 1.4
fold induction at 1 µM [2, 5]: 0.9
fold induction at 3 µM [2, 5]: 1.8
fold induction at 0.1 µM [2, 6]: 0.4
fold induction at 0.3 µM [2, 6]: 1.1
fold induction at 1 µM [2, 6]: 0.2
fold induction at 3 µM [2, 6]: 0.9
fold induction at 0.1 µM [2, 7]: 1.3
fold induction at 0.3 µM [2, 7]: 4.8
fold induction at 1 µM [2, 7]: 0.9
fold induction at 0.1 µM [2, 8]: 1.4
fold induction at 0.3 µM [2, 8]: 2
fold induction at 1 µM [2, 8]: 0.6
fold induction at 3 µM [2, 8]: 0.2
fold induction at 0.1 µM [2, 9]: 0.1
fold induction at 0.3 µM [2, 9]: 0.2
fold induction at 1 µM [2, 9]: 0.3
fold induction at 3 µM [2, 9]: 0.1
fold induction at 0.1 µM [2, 10]: 3.1
fold induction at 0.3 µM [2, 10]: 1.1
fold induction at 1 µM [2, 10]: 0.1
fold induction at 3 µM [2, 10]: 0.2
fold induction at 0.1 µM [2, 11]: 0.7
fold induction at 1 µM [2, 11]: 0.1
fold induction at 0.1 µM [2, 12]: 1.2
fold induction at 0.3 µM [2, 12]: 1.9
fold induction at 1 µM [2, 12]: 0.9
fold induction at 3 µM [2, 12]: 0.6
fold induction at 0.1 µM [2, 13]: 1.1
fold induction at 0.3 µM [2, 13]: 0.9
fold induction at 1 µM [2, 13]: 0.8
fold induction at 3 µM [2, 13]: 0.3
fold induction at 0.1 µM [2, 14]: 0.8
fold induction at 0.3 µM [2, 14]: 1.7
fold induction at 1 µM [2, 14]: 0.7
fold induction at 3 µM [2, 14]: 0.8
fold induction at 0.3 µM [2, 15]: 2.4
fold induction at 1 µM [2, 15]: 0.1
Cmax total ([3]; Supplementary Table 1): 811 nM
Cmax total ([3]; Table 1): 810 nM
